Laboratory results taken from patent publication US11485740B2, “Inhibitors of TRPC6” (Boehringer Ingelheim International GmbH, priority 2018, dated 2022).

The compounds below were run against T1, human TRPC6 (Homo sapiens, UniProt Q9Y210) (assay: High throughput screening assay: Fluo4/AM calcium fluorescence in HEK293/TREx cells expressing human TRPC6, agonist GSK1702934A (single concentration 10 μM and IC50 curves)). Details: antagonist effect against human TRPC6, 7 concentrations 20 μM to 0.027 μM, triplicate.
T1 construct: expressed in transfected cells
T1 sequence (Q9Y210 1-931): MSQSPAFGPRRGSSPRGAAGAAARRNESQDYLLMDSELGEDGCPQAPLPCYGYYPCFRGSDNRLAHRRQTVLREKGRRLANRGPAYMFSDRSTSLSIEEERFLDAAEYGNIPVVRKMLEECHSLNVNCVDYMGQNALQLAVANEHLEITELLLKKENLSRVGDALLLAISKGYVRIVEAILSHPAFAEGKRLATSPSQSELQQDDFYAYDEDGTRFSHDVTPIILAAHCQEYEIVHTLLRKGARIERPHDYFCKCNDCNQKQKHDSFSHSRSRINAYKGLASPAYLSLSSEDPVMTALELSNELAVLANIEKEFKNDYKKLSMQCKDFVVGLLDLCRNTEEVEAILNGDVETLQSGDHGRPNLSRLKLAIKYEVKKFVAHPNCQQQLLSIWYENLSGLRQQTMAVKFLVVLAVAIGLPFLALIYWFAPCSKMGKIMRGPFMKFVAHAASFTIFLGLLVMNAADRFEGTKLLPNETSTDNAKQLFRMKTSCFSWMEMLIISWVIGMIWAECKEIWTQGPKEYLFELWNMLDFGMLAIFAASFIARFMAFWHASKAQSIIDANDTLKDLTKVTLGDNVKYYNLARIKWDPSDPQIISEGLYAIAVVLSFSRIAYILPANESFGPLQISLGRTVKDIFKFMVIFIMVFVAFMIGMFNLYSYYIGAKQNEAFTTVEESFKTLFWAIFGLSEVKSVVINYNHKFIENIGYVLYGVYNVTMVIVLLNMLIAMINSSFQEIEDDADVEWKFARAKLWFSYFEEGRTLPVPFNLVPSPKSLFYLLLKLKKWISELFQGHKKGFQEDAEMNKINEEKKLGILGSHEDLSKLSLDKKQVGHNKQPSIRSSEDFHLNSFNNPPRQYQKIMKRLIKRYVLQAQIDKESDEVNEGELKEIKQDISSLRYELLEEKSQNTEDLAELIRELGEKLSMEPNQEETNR
Format: cell-based
How it was run: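 HEK293/TREx cells stably carrying tetracycline-induced (1 μg/ml) human TRPC6, loaded with Fluo4/AM (0.5 μM, 60 min, RT), pretreated 2 min with compound (10 μM final in screen), then stimulated with GSK1702934A in high-Ca2+ Ringer's (20 mM Ca2+ final). Fluorescence ratio over ~3 min normalized to no-compound and control-blocker wells; IC50 from triplicate curves.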
With `COc1ccc(-c2cnc(C(=O)N3CCC(c4ccc(N)nn4)CC3)cc2OC)cc1` [Compound 28, [4-(6-Amino-pyridazin-3-yl)-piperidin-1-yl]-[4-methoxy-5-(4-methoxy-phenyl)-pyridin-2-yl]-methanone] the IC50 was 0.19 µM.
`COc1cc(C(=O)N2CCC(c3ccc(N)nn3)CC2)ccc1-c1ccc(OC(C)C)cc1` [Compound 57, [4-(6-Amino-pyridazin-3-yl)-piperidin-1-yl]-(4′-isopropoxy-2-methoxy-biphenyl-4-yl)-methanone] gave an IC50 of 0.32 µM.
`COc1cc(-c2cnc(C(=O)N3CCC(c4ccc(N)nn4)CC3)cc2OC)ccc1F` [Compound 14, [4-(6-Amino-pyridazin-3-yl)-piperidin-1-yl]-[5-(4-fluoro-3-methoxy-phenyl)-4-methoxy-pyridin-2-yl]-methanone] was tested, and the IC50 was 3.3 µM.
